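Protocol summary: plate cells (96-well), add compound at 5 concentrations, incubate 48 h, interpolate endpoints linearly. At the TGI there is no net growth.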
Experiments:
Test in all cases: inhibition of tumour cell growth, NCI panel, 48 h
MDA-MB-435 = tested on: MDA-MB-435
KM12 colon = tested on: KM12 colon
NCI-H460 lung = tested on: NCI-H460 lung
T-47D breast = tested on: T-47D breast
MDA-MB-231 breast = tested on: MDA-MB-231 breast
UACC-62 melanoma = tested on: UACC-62 melanoma
SK-MEL-2 melanoma = tested on: SK-MEL-2 melanoma
HS 578T breast = tested on: HS 578T breast
786-0 renal = tested on: 786-0 renal
OVCAR-8 ovarian = tested on: OVCAR-8 ovarian
ACHN renal = tested on: ACHN renal
HCT-116 colon = tested on: HCT-116 colon
MOLT-4 leukemia = tested on: MOLT-4 leukemia
UO-31 renal = tested on: UO-31 renal
TK-10 renal = tested on: TK-10 renal
SN12C renal = tested on: SN12C renal
HT29 colon = tested on: HT29 colon
SK-OV-3 ovarian = tested on: SK-OV-3 ovarian
PC-3 prostate = tested on: PC-3 prostate
OVCAR-4 ovarian = tested on: OVCAR-4 ovarian
A498 renal = tested on: A498 renal
UACC-257 melanoma = tested on: UACC-257 melanoma
HL-60(TB) leukemia = tested on: HL-60(TB) leukemia
NCI-H226 lung = tested on: NCI-H226 lung
EKVX NSCLC = tested on: EKVX NSCLC
MDA-N = tested on: MDA-N
HCT-15 colon = tested on: HCT-15 colon
NCI-H522 lung = tested on: NCI-H522 lung
SF-268 CNS = tested on: SF-268 CNS
A549 NSCLC = tested on: A549 NSCLC
NCI/ADR-RES ovarian = tested on: NCI/ADR-RES ovarian
SR leukemia = tested on: SR leukemia
RPMI-8226 leukemia = tested on: RPMI-8226 leukemia
HOP-62 NSCLC = tested on: HOP-62 NSCLC
U251 CNS = tested on: U251 CNS
SF-539 CNS = tested on: SF-539 CNS
SK-MEL-28 melanoma = tested on: SK-MEL-28 melanoma
NCI-H23 lung = tested on: NCI-H23 lung
COLO 205 colon = tested on: COLO 205 colon
K-562 leukemia = tested on: K-562 leukemia
IGROV1 ovarian = tested on: IGROV1 ovarian
SNB-19 CNS = tested on: SNB-19 CNS
OVCAR-3 ovarian = tested on: OVCAR-3 ovarian
CAKI-1 renal = tested on: CAKI-1 renal
DU-145 prostate = tested on: DU-145 prostate
OVCAR-5 ovarian = tested on: OVCAR-5 ovarian
HOP-92 NSCLC = tested on: HOP-92 NSCLC
M14 melanoma = tested on: M14 melanoma
SW-620 colon = tested on: SW-620 colon
MCF7 breast = tested on: MCF7 breast
SK-MEL-5 melanoma = tested on: SK-MEL-5 melanoma
BT-549 breast = tested on: BT-549 breast
LOX IMVI melanoma = tested on: LOX IMVI melanoma
SF-295 CNS = tested on: SF-295 CNS
MALME-3M melanoma = tested on: MALME-3M melanoma
SNB-75 CNS = tested on: SNB-75 CNS
CCRF-CEM leukemia = tested on: CCRF-CEM leukemia
RXF 393 renal = tested on: RXF 393 renal

Compound: N#CC(C(=O)O)C(c1c(Cl)cccc1Cl)C(C#N)C(=O)O (stereo not drawn)
- TGI (MDA-MB-435): > 100 µM
- TGI (KM12 colon): > 100 µM
- TGI (NCI-H460 lung): > 100 µM
- TGI (T-47D breast): > 100 µM
- TGI (MDA-MB-231 breast): > 100 µM
- TGI (UACC-62 melanoma): > 100 µM
- TGI (SK-MEL-2 melanoma): > 100 µM
- TGI (HS 578T breast): > 100 µM
- TGI (786-0 renal): > 100 µM
- TGI (OVCAR-8 ovarian): > 100 µM
- TGI (ACHN renal): > 100 µM
- TGI (HCT-116 colon): > 100 µM
- TGI (MOLT-4 leukemia): > 100 µM
- TGI (UO-31 renal): > 100 µM
- TGI (TK-10 renal): > 100 µM
- TGI (SN12C renal): > 100 µM
- TGI (HT29 colon): > 100 µM
- TGI (SK-OV-3 ovarian): > 100 µM
- TGI (PC-3 prostate): > 100 µM
- TGI (OVCAR-4 ovarian): > 100 µM
- TGI (A498 renal): > 100 µM
- TGI (UACC-257 melanoma): > 100 µM
- TGI (HL-60(TB) leukemia): > 100 µM
- TGI (NCI-H226 lung): > 100 µM
- TGI (EKVX NSCLC): > 100 µM
- TGI (MDA-N): > 100 µM
- TGI (HCT-15 colon): > 100 µM
- TGI (NCI-H522 lung): > 100 µM
- TGI (SF-268 CNS): > 100 µM
- TGI (A549 NSCLC): > 100 µM
- TGI (NCI/ADR-RES ovarian): > 100 µM
- TGI (SR leukemia): > 100 µM
- TGI (RPMI-8226 leukemia): > 100 µM
- TGI (HOP-62 NSCLC): > 100 µM
- TGI (U251 CNS): > 100 µM
- TGI (SF-539 CNS): > 100 µM
- TGI (SK-MEL-28 melanoma): > 100 µM
- TGI (NCI-H23 lung): > 100 µM
- TGI (COLO 205 colon): > 100 µM
- TGI (K-562 leukemia): > 100 µM
- TGI (IGROV1 ovarian): > 100 µM
- TGI (SNB-19 CNS): > 100 µM
- TGI (OVCAR-3 ovarian): > 100 µM
- TGI (CAKI-1 renal): > 100 µM
- TGI (DU-145 prostate): > 100 µM
- TGI (OVCAR-5 ovarian): > 100 µM
- TGI (HOP-92 NSCLC): > 100 µM
- TGI (M14 melanoma): > 100 µM
- TGI (SW-620 colon): > 100 µM
- TGI (MCF7 breast): > 100 µM
- TGI (SK-MEL-5 melanoma): > 100 µM
- TGI (BT-549 breast): > 100 µM
- TGI (LOX IMVI melanoma): > 100 µM
- TGI (SF-295 CNS): > 100 µM
- TGI (MALME-3M melanoma): > 100 µM

Compound: C#CCOC(=O)[C@@H](C)c1ccc2cc(OC)ccc2c1
- TGI (MDA-MB-435): > 100 µM
- TGI (KM12 colon): > 100 µM
- TGI (NCI-H460 lung): > 100 µM
- TGI (T-47D breast): > 100 µM
- TGI (SNB-75 CNS): > 100 µM
- TGI (MDA-MB-231 breast): > 100 µM
- TGI (CCRF-CEM leukemia): > 100 µM
- TGI (UACC-62 melanoma): > 100 µM
- TGI (SK-MEL-2 melanoma): > 100 µM
- TGI (HS 578T breast): > 100 µM
- TGI (786-0 renal): > 100 µM
- TGI (OVCAR-8 ovarian): > 100 µM
- TGI (ACHN renal): > 100 µM
- TGI (HCT-116 colon): > 100 µM
- TGI (MOLT-4 leukemia): > 100 µM
- TGI (UO-31 renal): > 100 µM
- TGI (TK-10 renal): > 100 µM
- TGI (SN12C renal): > 100 µM
- TGI (SK-OV-3 ovarian): > 100 µM
- TGI (PC-3 prostate): > 100 µM
- TGI (OVCAR-4 ovarian): > 100 µM
- TGI (A498 renal): > 100 µM
- TGI (UACC-257 melanoma): > 100 µM
- TGI (HL-60(TB) leukemia): 35.8 µM
- TGI (NCI-H226 lung): > 100 µM
- TGI (EKVX NSCLC): > 100 µM
- TGI (MDA-N): > 100 µM
- TGI (HCT-15 colon): > 100 µM
- TGI (NCI-H522 lung): > 100 µM
- TGI (SF-268 CNS): > 100 µM
- TGI (NCI/ADR-RES ovarian): > 100 µM
- TGI (SR leukemia): > 100 µM
- TGI (RXF 393 renal): > 100 µM
- TGI (RPMI-8226 leukemia): > 100 µM
- TGI (HOP-62 NSCLC): > 100 µM
- TGI (U251 CNS): > 100 µM
- TGI (SF-539 CNS): > 100 µM
- TGI (NCI-H23 lung): > 100 µM
- TGI (COLO 205 colon): > 100 µM
- TGI (K-562 leukemia): > 100 µM
- TGI (IGROV1 ovarian): > 100 µM
- TGI (SNB-19 CNS): > 100 µM
- TGI (CAKI-1 renal): > 100 µM
- TGI (DU-145 prostate): > 100 µM
- TGI (OVCAR-5 ovarian): > 100 µM
- TGI (HOP-92 NSCLC): > 100 µM
- TGI (M14 melanoma): > 100 µM
- TGI (SW-620 colon): > 100 µM
- TGI (MCF7 breast): > 100 µM
- TGI (SK-MEL-5 melanoma): > 100 µM
- TGI (BT-549 breast): > 100 µM
- TGI (LOX IMVI melanoma): > 100 µM
- TGI (SF-295 CNS): > 100 µM

Reference: PubChem BioAssay (NCI)
